2 compounds from US10124065B2, “Lipids and lipid compositions for the delivery of active agents” (Novartis AG, priority 2013, dated 2018) can be followed below.

Molecules are shown by their SMILES.

A short description of data set [1]: pKa measurement of cationic lipid (TNS fluorescence). Format: physicochemical. The conditions noted are these: pKa of the cationic lipid of formula (I); Table 4; listed as Ex. 38. The procedure: Unless indicated otherwise, all pKa's referred to herein were measured at standard temperature and pressure. Also, unless otherwise indicated, all references to pKa are references to pKa measured using the following technique. 2 mM solution of lipid in ethanol was prepared by weighing the lipid and then dissolving it in ethanol. 0.3 mM solution of fluorescent probe TNS in ethanol:methanol 9:1 was prepared by first making 3 mM solution of TNS in methanol and then diluting to 0.3 mM with ethanol. An aqueous buffer containing 200 mM sodium phosphate dibasic and 100 mM citric acid was prepared. […] Using the Hamilton Microlab Star high throughput liquid handler and Hamilton run control software Software, 7.5 uL of probe/lipid mix were added to 242.5 uL of buffer in a 1 mL 96 well plate (model NUNC 260252, […] Nunc International). This was done with all twelve buffers. After mixing in 1 mL 96 well plate, 100 uL of each probe/lipid/buffer mixture was transferred to a 250 uL black with clear bottom 96 well plate (model COSTAR 3904, Corning). The fluorescence measurements are carried out on the SpectraMax M5 spectrophotometer using software SoftMax pro 5.2 and following parameters: After the measurement, the background fluorescence value of an empty well on the 96 well plate was subtracted from each probe/lipid/buffer mixture. The fluorescence intensity values were then normalized to the value at lowest pH. The normalized fluorescence intensity vs. pH chart was then plotted in the Microsoft Excel software. The twelve points were connected with a smooth line. The point on the line at which the normalized fluorescence intensity was equal to 0.5 was found. […] The pKa determined using this method is precise to about 0.1 pKa units.

In data set [2] the test system is plasma Factor VII enzyme activity. Kind of data set: Mouse Factor VII dosing / Factor VII Activity Assay. Format: in vivo. To be noted: percent knock down of plasma Factor VII activity, CD-1 mice, 48 h; for KD FVII 0.3 mg/kg: single IV dose 0.3 mg/kg, LNP Chol/DSPC/PEG-DMG 45/44/9/2. An outline of the steps: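 Female CD-1 mice (~25 g) received a single IV tail-vein dose of lipid-nanoparticle-formulated Factor VII siRNA (0.3 or 0.03 mg/kg). Plasma taken ~48 h later; FVII activity measured chromogenically against vehicle-control plasma standard curve, reported as % knockdown.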

Data set [3] deals with PLK-1 mRNA. Kind of data set: LS411N Xenograft Assay. Format: in vivo, Nu/Nu mice. To be noted: percent knock down of PLK-1 mRNA vs control in LS411N tumors, IV 3 mg/kg daily for three days. The procedure:
Female Nu/Nu mice (6-8 weeks old) were implanted subcutaneously with 5×10^6 LS411N cells. Tumor growth was monitored by caliper measurement before treatment initiation. Mice bearing 150-250 mm^3 subcutaneous tumors were randomized and enrolled in the study. The stock siRNA formulations were diluted to […] with PBS for dosing. Animals enrolled in different groups received a single daily bolus IV injection of 3 mg/kg siRNA for three days. Tumors were harvested 24 hours post last injection to assess target gene regulation by qRT-PCR.
Lipid nanoparticles comprising lipid compounds of formula (I) and the PLK1-424 siRNA duplex sequence listed above were tested in the LS411N Xenograft Assay. The results of this assay are given in Table 5 below as a percent knock down of PLK-1 mRNA as compared to the control when administered as a single daily dose for three days at a dose of 3 mg/kg.

For data set [4], the system named is human leptin. Kind of data set: Mouse intravenous tail vein injection of modified synthetic leptin mRNA, human leptin ELISA. Format: in vivo, C57BL/6 mouse. To be noted: human leptin in mouse plasma, 10 μg leptin mRNA, 24 h. The procedure:
Before the tail vein injection, mouse body weights were recorded and diet weighted, with mice grouped according to their body weights. Mice were prepared by warming them under a heating lamp for ˜2 minutes, with the mice about 12 inches from heat lamp.
For the tail vein injection procedure, the mice were placed in a restrainer and their tails cleaned with 70% alcohol. A 27 gauge needle (Becton Dickinson, Catalogue #305109) connected with a 1 ml syringe (Becton Dickinson, Catalogue #309659) was inserted into the tail vein, with bevel facing up, and the syringe plunger was pulled backwards to ensure blood is drawn into the syringe. The desired volume of modified synthetic leptin mRNA was injected by hand with moderate pressure and speed. The needle was then withdrawn and bleeding stopped by adding pressure to injection site with gauze.
Single housed, 8-9 week old, male C57BL/6 mice were used for the in vivo study. FPLC purified modified synthetic leptin mRNA (SEQ ID NO: 5) in which the uridines were substituted with pseudouridine was packaged in a cationic lipid (N:P molar ratio=8:1) and then were diluted in injectable saline at a dose of 10 μg per average group body weight.
On day 0, animals were weighed and sorted according to average body weight. Mice were dosed, and food intake (FI) was recorded, on each of days 1-7 and days 9, 11, and 16.
Human leptin in mouse plasma was measured by ELISA. Antibodies purchased from the R&D Systems duoset (Cat# DY398E, part#840279 for capture antibody and part#840280 for detection antibody) were reconstituted using PBS and titered, again using PBS. The capture antibody was coated at 4 ug/ml in 30 ul/well on a white Nunc® Maxisorp 384 well plate (Cat#460372). After an overnight incubation at room temperature the capture antibody was aspirated and the plate blocked for 2 hours at room temperature with 90 ul/well of KPL milk blocker (Cat#50-82-00). Once the incubation was completed the plate was aspirated and recombinant standards and samples were added to the plate at 30 ul/well for 2 hours at 37° C. while shaking at 600 rpm. Sample/standard dilutions were made using casein sample diluent. Washing/aspiration 3 times with 100 ul/well followed, using Teknova plate wash solution (Cat# P1192). Next, detection antibody was diluted using casein detection antibody diluent to 12.5 ng/ml and added at 30 ul/well for 2 hours room temperature. After this incubation, the plate was washed again and a solution of poly-streptavidin-HRP (Cat#21140) at a 1:1250 dilution in HRP dilution buffer was added to each well (30 ul/well) and incubated for 30 minutes room temperature. A final wash/aspiration removed the HRP solution and a chemiluminescent substrate was added at 30 ul/well (Cat#1859678 & 1859679). The plate was quickly read using a SpectramaxM5 plate reader with a 50 ms integration time. The dynamic range of the ELISA is from 100-2,000 pg/ml (6.25-125 pM) of human leptin.
On the technique in general: In an ELISA, binding on a coated surface is turned into a signal by an enzyme label.

Turning to `CCCCC/C=C\C/C=C\CCCCCCCC(=O)OCCCCOc1cc(CN(C)C)cc(OCCCCOC(=O)CCCCCCC/C=C\C/C=C\CCCCC)c1` [Example 38, (9Z,9′Z,12Z,12′Z)-((5-((dimethylamino)methyl)-1,3-phenylene)bis(oxy))bis(butane-4,1-diyl)bis(octadeca-9,12-dienoate)], the pKa in data set [1] was determined as 5.9. Besides, the “KD FVII 0.03 mg/kg” value in data set [2] (single IV dose 0.03 mg/kg, LNP Chol/DSPC/S010 45/44/9/2) is given as 43.6%. In addition, the “KD FVII 0.3 mg/kg” value in data set [2] was found to be 99%. Also, the figures for the “LS411 KD 3 × 3 mg/Kg” value in data set [3] (LNP Chol/DSPC/PEG-DSG 45/44/9/2) and in data set [3] (LNP Chol/DSPC/S010 45/44/9/2) were 58% and 60%, respectively. Moreover, the “Leptin expression IV-C57BI/6, 24 h” value in data set [4] was determined as 17.21 ng/mL.

As for `CCCCCCCCCCOC(=O)CCCCCCCOc1cc(CN(C)C)cc(OCCCCCCCC(=O)OCCCCCCCCCC)c1` [Example 57, didecyl 8,8′-((5-((dimethylamino)methyl)-1,3-phenylene)bis(oxy))dioctanoate], the “KD FVII 0.3 mg/kg” value in data set [2] was 96.7%. In addition, in data set [3] (LNP Chol/DSPC/S010 45/44/9/2), the “LS411 KD 3 × 3 mg/Kg” value amounted to 60%. For the same compound, in data set [4], the “Leptin expression IV-C57BI/6, 24 h” value stood at 9.17 ng/mL.

A word on the pKa: it is the negative logarithm of the acid dissociation constant. A high value points to a weaker acid or stronger base.
